The results in this text go back to US8927571B2, “Pyrido[4,3-B]indoles and methods of use” (Medivation Technologies, Inc., priority 2009, dated 2015).

The target of assay [1] is T1, human recombinant adrenergic α1D receptor (Homo sapiens, UniProt P25100).
T1 construct: expressed in transfected cells; host or cells: human embryonic kidney (HEK-293) cells
T1 sequence (P25100 1-572): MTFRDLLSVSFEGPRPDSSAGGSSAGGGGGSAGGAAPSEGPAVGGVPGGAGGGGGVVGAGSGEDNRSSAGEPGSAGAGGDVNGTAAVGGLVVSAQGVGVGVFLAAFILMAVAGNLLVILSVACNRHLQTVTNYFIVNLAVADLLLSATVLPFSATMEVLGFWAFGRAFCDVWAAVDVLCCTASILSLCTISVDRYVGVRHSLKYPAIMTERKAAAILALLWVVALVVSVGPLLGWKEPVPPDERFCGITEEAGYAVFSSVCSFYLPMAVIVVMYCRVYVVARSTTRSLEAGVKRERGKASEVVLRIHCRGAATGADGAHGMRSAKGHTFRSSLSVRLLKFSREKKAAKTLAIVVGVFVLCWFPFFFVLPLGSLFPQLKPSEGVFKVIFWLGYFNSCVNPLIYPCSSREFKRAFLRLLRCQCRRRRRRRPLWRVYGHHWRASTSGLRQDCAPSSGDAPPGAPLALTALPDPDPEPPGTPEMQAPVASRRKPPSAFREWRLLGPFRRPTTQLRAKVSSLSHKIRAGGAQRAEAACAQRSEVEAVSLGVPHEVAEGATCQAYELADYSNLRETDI
In words: Adrenergic α1D radioligand binding assay ([3H]Prozosin). To be noted: 0.6 nM [3H]Prozosin, read-out: Percent Inhibition of ligand binding, Adrenergic (1 μM) α1D. The protocol:
Compounds of invention were incubated with 0.6 nM [^3H]Prozosin for 60 min at 25° C. Non-specific binding was estimated in the presence of 10 μM phentolamine. Receptor proteins were filtered and washed, the filters were then counted to determine [^3H]Prozosin specifically bound. Compounds were screened at 1 μM or lower, using 1% DMSO as vehicle. Biochemical assay results are presented as the percent inhibition of specific binding in Table 3.

Assay [2] concerns the target T2, human recombinant serotonin (5-Hydroxytryptamine) 5-HT6 receptor (Homo sapiens, UniProt P50406).
T2 construct: expressed in transfected cells; host or cells: human HeLa cells
Briefly: Serotonin 5-HT6 radioligand binding assay ([3H]LSD). The settings on record: 1.5 nM [3H]LSD, read-out: Percent Inhibition of ligand binding, Serotonin (1 μM) 5-HT6. Here is the method:
Compounds of the invention were incubated with 1.5 nM [3H]Lysergic acid diethylamide (LSD) for 120 min at 37° C. […] Receptor proteins were filtered and washed, the filters were then counted to determine [3H]LSD specifically bound. Compounds were screened at 1 μM or lower, using 1% DMSO as vehicle. Biochemical assay results are presented as the percent inhibition of specific binding in Table 4.

Assay [3] has as its target human recombinant dopamine D2L receptor (Homo sapiens, UniProt P14416). In words: Dopamine D2L radioligand binding assay ([3H]Spiperone). The settings on record: for inhibition at 1 µM: read-out: Percent Inhibition of ligand binding, Dopamine (1 μM) D2L. The protocol:
Compounds of the invention were incubated with 0.16 nM [^3H]Spiperone for 120 min at 25° C. Non-specific binding was estimated in the presence of 10 μM Haloperidol. Receptor proteins were filtered and washed, the filters were then counted to determine [^3H]Spiperone specifically bound. Compounds were screened at 1 μM or lower, using 1% DMSO as vehicle. Biochemical assay results are presented as the percent inhibition of specific binding in Table 3.

The target of assay [4] is human recombinant histamine H1 receptor (Homo sapiens, UniProt P35367). In words: Histamine H1 radioligand binding assay ([3H]Pyrilamine). The settings on record: percent inhibition of specific binding of […] [3H]Pyrilamine; compounds screened at 1 μM or lower. The protocol:
To evaluate in radioligand binding assays the activity of compounds of the invention, human recombinant histamine H1 receptor expressed in Chinese hamster ovary (CHO) cells (De Backer, M. D. et al., Biochem. Biophys. Res. Comm. 197(3):1601, 1993) in a modified Tris-HCl buffer (50 mM Tris-HCl, pH 7.4, 2 mM MgCl2, 100 mM NaCl, 250 mM Sucrose) was used. Compounds of the invention were incubated with 1.2 nM [^3H]Pyrilamine for 180 min at 25° C. Non-specific binding was estimated in the presence of 1 μM pyrilamine. Receptor proteins were filtered and washed, the filters were then counted to determine [^3H]Pyrilamine specifically bound. Compounds were screened at 1 μM or lower, using 1% DMSO as vehicle. Biochemical assay results are presented as the percent inhibition of specific binding in Table 2.

The target in assay [5] is T3, human recombinant histamine H2 receptor (Homo sapiens, UniProt P25021).
T3 construct: expressed in transfected cells; host or cells: Chinese hamster ovary (CHO) K1 cells
In words: Histamine H2 radioligand binding assay ([125I]Aminopotentidine). The settings on record: percent inhibition of specific binding of 0.1 nM [125I]Aminopotentidine; compounds screened at 1 μM or lower. The protocol:
To evaluate in radioligand binding assays the activity of compounds of the invention, human recombinant histamine H2 receptor expressed in Chinese hamster ovary (CHO) K1 cells (Ruat, M., Proc. Natl. Acad. Sci. USA. 87(5):1658, 1990) in a 50 mM Phosphate buffer, pH 7.4 was used. Compounds of the invention were incubated with 0.1 nM [^125I]Aminopotentidine for 120 min at 25° C. Non-specific binding was estimated in the presence of 3 μM Tiotidine. Receptor proteins were filtered and washed, the filters were then counted to determine [^125I]Aminopotentidine specifically bound. Compounds were screened at 1 μM or lower, using 1% DMSO as vehicle. Biochemical assay results are presented as the percent inhibition of specific binding in Table 2.

Molecules are shown by their SMILES.

Chain of human recombinant dopamine D2L receptor (P14416 whole entry): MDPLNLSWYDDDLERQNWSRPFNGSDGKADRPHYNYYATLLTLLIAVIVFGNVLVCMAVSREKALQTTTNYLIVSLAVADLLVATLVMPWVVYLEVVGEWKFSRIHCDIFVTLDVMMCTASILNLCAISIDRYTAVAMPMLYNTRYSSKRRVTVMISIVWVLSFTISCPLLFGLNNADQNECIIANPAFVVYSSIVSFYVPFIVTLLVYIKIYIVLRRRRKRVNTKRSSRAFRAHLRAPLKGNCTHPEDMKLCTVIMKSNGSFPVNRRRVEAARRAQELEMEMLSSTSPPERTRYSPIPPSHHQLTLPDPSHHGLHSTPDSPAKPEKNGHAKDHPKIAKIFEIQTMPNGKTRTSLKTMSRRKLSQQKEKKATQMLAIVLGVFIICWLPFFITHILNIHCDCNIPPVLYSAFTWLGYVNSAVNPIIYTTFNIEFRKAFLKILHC
Chain of human recombinant histamine H1 receptor (P35367 whole entry): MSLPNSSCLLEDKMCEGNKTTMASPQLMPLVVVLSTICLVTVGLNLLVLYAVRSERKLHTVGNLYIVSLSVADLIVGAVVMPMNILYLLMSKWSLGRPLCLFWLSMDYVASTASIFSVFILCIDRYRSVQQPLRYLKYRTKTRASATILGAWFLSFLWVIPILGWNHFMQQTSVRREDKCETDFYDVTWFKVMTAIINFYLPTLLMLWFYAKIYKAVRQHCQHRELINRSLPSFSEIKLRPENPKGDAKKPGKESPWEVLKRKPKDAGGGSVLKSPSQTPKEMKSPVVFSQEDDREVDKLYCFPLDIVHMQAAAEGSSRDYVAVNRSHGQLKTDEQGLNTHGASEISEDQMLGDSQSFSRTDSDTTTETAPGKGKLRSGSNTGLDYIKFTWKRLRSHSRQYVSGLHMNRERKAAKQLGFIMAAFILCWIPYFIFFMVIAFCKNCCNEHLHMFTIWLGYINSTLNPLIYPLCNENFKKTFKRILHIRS
T3 sequence (P25021 whole entry): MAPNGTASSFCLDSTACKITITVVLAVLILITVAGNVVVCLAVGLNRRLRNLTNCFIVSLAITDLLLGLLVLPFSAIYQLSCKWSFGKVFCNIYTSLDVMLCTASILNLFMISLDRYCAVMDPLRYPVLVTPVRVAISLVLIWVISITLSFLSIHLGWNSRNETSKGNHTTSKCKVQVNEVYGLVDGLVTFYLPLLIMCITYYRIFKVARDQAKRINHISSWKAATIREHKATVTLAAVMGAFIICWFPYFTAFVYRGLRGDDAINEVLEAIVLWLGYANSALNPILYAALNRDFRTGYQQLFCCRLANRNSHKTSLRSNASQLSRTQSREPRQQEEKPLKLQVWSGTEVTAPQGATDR
T2 sequence (P50406 whole entry): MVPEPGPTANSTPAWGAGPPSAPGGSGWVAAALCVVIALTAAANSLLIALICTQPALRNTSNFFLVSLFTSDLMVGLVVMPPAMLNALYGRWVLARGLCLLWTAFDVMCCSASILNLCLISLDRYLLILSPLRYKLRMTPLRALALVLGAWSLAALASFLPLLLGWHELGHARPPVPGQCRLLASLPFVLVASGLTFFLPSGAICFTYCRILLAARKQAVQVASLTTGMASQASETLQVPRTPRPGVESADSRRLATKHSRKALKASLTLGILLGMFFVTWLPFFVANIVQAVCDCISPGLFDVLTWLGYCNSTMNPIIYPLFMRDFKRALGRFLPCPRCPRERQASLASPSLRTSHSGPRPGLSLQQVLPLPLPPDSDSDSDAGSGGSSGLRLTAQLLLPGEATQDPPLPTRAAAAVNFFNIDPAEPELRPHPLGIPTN

Turning to `CNC(=O)CC(Cn1c2c(c3cc(C)ccc31)CN(C)CC2)c1ccc(F)cc1` (centres unmarked) [Compound 8, 4-(2,8-dimethyl-3,4-dihydro-1H-pyrido[4,3-b]indol-5(2H)-yl)-3-(4-fluorophenyl)-N-methylbutanamide], the inhibition at 1 µM in assay [1] was determined as 87%; in assay [2], 63%; in assay [3] it was 14%. Also, the “Binding Data (% Inhibition) Histamine Binding H1” value in assay [4] is 6%. In addition, in assay [5], the “Binding Data (% Inhibition) Histamine Binding H2” value was 22%.
As for `Cc1ccc2c(c1)c1c(n2CC2(c3ccccc3)OCCO2)CCN(C)C1` [Compound 2, 2,8-dimethyl-5-((2-phenyl-1,3-dioxolan-2-yl)methyl)-2,3,4,5-tetrahydro-1H-pyrido[4,3-b]indole], the inhibition at 1 µM in assay [1] turned out to be 56%; in assay [2], 102%; in assay [3] it was 51%. For the same compound, the “Binding Data (% Inhibition) Histamine Binding H1” value in assay [4] turned out to be 71%. Moreover, the “Binding Data (% Inhibition) Histamine Binding H2” value in assay [5] was determined as 89%.
The corresponding values for `Cc1ccc2c(c1)c1c(n2CC2(c3ccc(F)cc3)OCCO2)CCN(C)C1` [Compound 3, 5-((2-(4-fluorophenyl)-1,3-dioxolan-2-yl)methyl)-2,8-dimethyl-2,3,4,5-tetrahydro-1H-pyrido[4,3-b]indole] are 60%, 103%, 45%, 86% and 96%.
As for `CN1CCc2c(c3cc(Cl)ccc3n2CC2(c3ccc(Cl)cc3)OCCO2)C1` [Compound 5, 8-chloro-5-((2-(4-chlorophenyl)-1,3-dioxolan-2-yl)methyl)-2-methyl-2,3,4,5-tetrahydro-1H-pyrido[4,3-b]indole], the inhibition at 1 µM in assay [1] amounted to 16%; in assay [2], 85%; in assay [3], 53%. For the same compound, in assay [4], the “Binding Data (% Inhibition) Histamine Binding H1” value is 90%. Also, the “Binding Data (% Inhibition) Histamine Binding H2” value in assay [5] is on record as 98%.
For the compound `Cc1ccc2c(c1)c1c(n2CC(CC(=O)O)c2ccc(F)cc2)CCN(C)C1` (centres unmarked) [Compound 7, 4-(2,8-dimethyl-3,4-dihydro-1H-pyrido[4,3-b]indol-5(2H)-yl)-3-(4-fluorophenyl)butanoic acid], the inhibition at 1 µM in assay [1] is 21%; in assay [2] it was -3%; in assay [3] it was -10%. In assay [4], the “Binding Data (% Inhibition) Histamine Binding H1” value is listed as −1%. For the same compound, the “Binding Data (% Inhibition) Histamine Binding H2” value in assay [5] was 5%.
The corresponding values for `CN1CCc2c(c3cc(Cl)ccc3n2CC2(c3ccc(F)cc3)OCCO2)C1` [Compound 4, 8-chloro-5-((2-(4-fluorophenyl)-1,3-dioxolan-2-yl)methyl)-2-methyl-2,3,4,5-tetrahydro-1H-pyrido[4,3-b]indole] are 35%, 104%, 58%, 87% and 96%.
For the compound `CCOC(=O)CC(Cn1c2c(c3cc(C)ccc31)CN(C)CC2)c1ccc(F)cc1` (centres unmarked) [Compound 6, ethyl 4-(2,8-dimethyl-3,4-dihydro-1H-pyrido[4,3-b]indol-5(2H)-yl)-3-(4-fluorophenyl)butanoate], the results for the inhibition at 1 µM in assay [1], in assay [2] and in assay [3] were 106%, 102% and 24%, respectively. In addition, the “Percent Inhibition of ligand binding, Dopamine (1 μM) D2L” value in assay [3] turned out to be 31%. Besides, the “Binding Data (% Inhibition) Histamine Binding H2” value in assay [5] turned out to be 86%.
